The target in assay [1] is T1, Aurora A (Homo sapiens, UniProt O14965).
T1 construct: cell lysates from Jurkat cells (ATCC TIB-152) used; endogenous in cells; host or cells: Jurkat cells (ATCC TIB-152), treated with pervanadate
T1 sequence (O14965 1-403): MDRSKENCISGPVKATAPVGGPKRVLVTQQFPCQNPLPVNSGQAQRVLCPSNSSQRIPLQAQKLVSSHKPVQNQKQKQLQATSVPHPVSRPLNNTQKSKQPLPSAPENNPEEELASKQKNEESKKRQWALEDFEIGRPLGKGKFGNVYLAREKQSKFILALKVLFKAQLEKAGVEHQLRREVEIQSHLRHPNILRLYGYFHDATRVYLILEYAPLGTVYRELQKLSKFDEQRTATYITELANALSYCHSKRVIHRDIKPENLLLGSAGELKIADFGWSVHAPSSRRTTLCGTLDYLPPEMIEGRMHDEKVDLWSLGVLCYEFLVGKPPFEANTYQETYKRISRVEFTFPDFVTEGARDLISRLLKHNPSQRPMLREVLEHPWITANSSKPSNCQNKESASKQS
The assay is described as follows: Kinobeads assay, Aurora A. It counts as binding. The settings on record: for IC50: lysate of pervanadate-treated Jurkat cells, read-out: Inhibition values (IC50) Aur A.

Assay [2] concerns the target T2, Aurora B (Homo sapiens, UniProt Q96GD4).
T2 construct: cell lysates from Jurkat cells (ATCC TIB-152) used; endogenous in cells; host or cells: Jurkat cells (ATCC TIB-152), treated with pervanadate
The assay is described as follows: Kinobeads assay, Aurora B. The class given is binding. To be noted: for IC50: lysate of pervanadate-treated Jurkat cells, read-out: Inhibition values (IC50) Aur B.

Each structure is given as a SMILES string.

T2 sequence (Q96GD4 whole entry): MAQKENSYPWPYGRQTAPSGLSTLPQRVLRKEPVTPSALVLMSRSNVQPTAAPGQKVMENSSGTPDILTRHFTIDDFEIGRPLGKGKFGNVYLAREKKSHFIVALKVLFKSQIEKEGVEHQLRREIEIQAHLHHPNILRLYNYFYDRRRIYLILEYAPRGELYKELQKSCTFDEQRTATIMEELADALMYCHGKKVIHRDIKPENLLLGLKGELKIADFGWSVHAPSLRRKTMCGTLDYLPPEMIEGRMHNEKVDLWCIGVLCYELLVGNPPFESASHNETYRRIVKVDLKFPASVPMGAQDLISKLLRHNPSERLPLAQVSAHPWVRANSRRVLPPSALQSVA

With `O=C1COCCN1c1cc(F)c(F)c(Cn2ncc3cnc(Nc4cnn(CCO)c4)nc32)c1F` [Example 62, 4-(2,4,5-Trifluoro-3-((6-((1-(2-hydroxyethyl)-1H-pyrazol-4-yl)amino)-1H-pyrazolo[3,4-d]pyrimidin-1-yl)methyl)phenyl)morpholin-3-one], in assay [1], the “JAK3/AurA Fold Selectivity” value was 10-50 Fold and the IC50 lay in the range of 0.1 to 1 µM. In assay [2], the “JAK3/AurB Fold Selectivity” value is recorded as 10-50 Fold and the IC50 is 0.1 to 1 µM.

Regarding `Cn1cc(Nc2ncc3cnn(Cc4c(F)c(F)cc(N5CCNCC5)c4F)c3n2)cn1` [Example 66, N-(1-Methyl-1H-pyrazol-4-yl)-1-(2,3,6-trifluoro-5-(piperazin-1-yl)benzyl)-1H-pyrazolo[3,4-d]pyrimidin-6-amine], in assay [1], the “JAK3/AurA Fold Selectivity” value was 10-50 Fold and the IC50 lay within 0.1 to 1 µM. Besides, in assay [2], the “JAK3/AurB Fold Selectivity” value was 3-10 Fold and the IC50 was < 0.1 µM.

As for `CN(C)CCCn1cc(Nc2ncc3cnn(Cc4c(F)c(F)cc(N5CCOCC5=O)c4F)c3n2)cn1` [Example 70, 4-(3-((6-((1-(3-(Dimethylamino)propyl)-1H-pyrazol-4-yl)amino)-1H-pyrazolo[3,4-d]pyrimidin-1-yl)methyl)-2,4,5-trifluorophenyl)morpholin-3-one], in assay [1], the “JAK3/AurA Fold Selectivity” value was >50 Fold and the IC50 lay in the range of 1 to 10 µM. Moreover, in assay [2], the “JAK3/AurB Fold Selectivity” value is 10-50 Fold and the IC50 lay within 0.1 to 1 µM.

As for `Cn1cc(Nc2ncc3cnn(Cc4cc(F)cc(C(=O)N5CCOCC5)c4)c3n2)cn1` [Example 79, (3-Fluoro-5-((6-((1-methyl-1H-pyrazol-4-yl)amino)-1H-pyrazolo[3,4-d]pyrimidin-1-yl)methyl)phenyl)(morpholino)methanone], in assay [1], the “JAK3/AurA Fold Selectivity” value is given as 10-50 Fold and the IC50 lay in the range of 0.1 to 1 µM. Besides, in assay [2], the “JAK3/AurB Fold Selectivity” value is listed as >50 Fold and the IC50 lay within 1 to 10 µM.

As to `O=C1COCCN1c1cc(F)cc(Cn2ncc3cnc(Nc4cnn(CCO)c4)nc32)c1` [Example 58, 4-(3-Fluoro-5-((6-((1-(2-hydroxyethyl)-1H-pyrazol-4-yl)amino)-1H-pyrazolo[3,4-d]pyrimidin-1-yl)methyl)phenyl)morpholin-3-one], in assay [1], the “JAK3/AurA Fold Selectivity” value was 10-50 Fold and the IC50 lay in the range of 0.1 to 1 µM. Moreover, in assay [2], the “JAK3/AurB Fold Selectivity” value is listed as 10-50 Fold and the IC50 was in the range of 0.1 to 1 µM.

Take `Cn1cc(Nc2ncc3cnn(Cc4cc(F)cc(N5CCOCC5=O)c4F)c3n2)cn1` [Example 73, 4-(2,5-Difluoro-3-((6-((1-methyl-1H-pyrazol-4-yl)amino)-1H-pyrazolo[3,4-d]pyrimidin-1-yl)methyl)phenyl)morpholin-3-one]: in assay [1], the “JAK3/AurA Fold Selectivity” value is given as 10-50 Fold and the IC50 was 0.1 to 1 µM. Besides, in assay [2], the “JAK3/AurB Fold Selectivity” value is 10-50 Fold and the IC50 lay within 0.1 to 1 µM.

For the molecule `Cn1cc(Nc2ncc3cnn(Cc4cc(N5CCOCC5=O)cc(F)c4F)c3n2)cn1` [Example 53, 4-(3,4-Difluoro-5-((6-((1-methyl-1H-pyrazol-4-yl)amino)-1H-pyrazolo[3,4-d]pyrimidin-1-yl)methyl)phenyl)morpholin-3-one], in assay [1], the “JAK3/AurA Fold Selectivity” value was >50 Fold and the half-maximal inhibitory concentration (IC50) is 0.1 to 1 µM. For the same molecule, in assay [2], the “JAK3/AurB Fold Selectivity” value is >50 Fold and the IC50 lay within 0.1 to 1 µM.

With `OCCn1cc(Nc2ncc3cnn(Cc4cc(F)cc(N5CCOCC5)c4)c3n2)cn1` [Example 51, 2-(4-((1-(3-Fluoro-5-morpholinobenzyl)-1H-pyrazolo[3,4-d]pyrimidin-6-yl)amino)-1H-pyrazol-1-yl)ethanol], in assay [1], the “JAK3/AurA Fold Selectivity” value was 10-50 Fold and the IC50 was 0.1 to 1 µM. In assay [2], the “JAK3/AurB Fold Selectivity” value is >50 Fold and the IC50 was 0.1 to 1 µM.

Turning to `OCCn1cc(Nc2ncc3cnn(Cc4cc(N5CCOCC5)ccc4F)c3n2)cn1` [Example 44, 2-(4-((1-(2-Fluoro-5-morpholinobenzyl)-1H-pyrazolo[3,4-d]pyrimidin-6-yl)amino)-1H-pyrazol-1-yl)ethanol], in assay [1], the “JAK3/AurA Fold Selectivity” value is listed as 10-50 Fold and the IC50 was in the range of 0.1 to 1 µM. Also, in assay [2], the “JAK3/AurB Fold Selectivity” value is given as 10-50 Fold and the IC50 fell in the range of 0.1 to 1 µM.

As to `O=C1CNCCN1c1cc(F)cc(Cn2ncc3cnc(Nc4cnn(CCO)c4)nc32)c1` [Example 63, 1-(3-Fluoro-5-((6-((1-(2-hydroxyethyl)-1H-pyrazol-4-yl)amino)-1H-pyrazolo[3,4-d]pyrimidin-1-yl)methyl)phenyl)piperazin-2-one], in assay [1], the “JAK3/AurA Fold Selectivity” value is 10-50 Fold and the IC50 lay in the range of 0.1 to 1 µM. In assay [2], the “JAK3/AurB Fold Selectivity” value is 3-10 Fold and the IC50 is < 0.1 µM.

Take `Cn1cc(Nc2ncc3cnn(Cc4c(F)ccc(N5CCNCC5=O)c4F)c3n2)cn1` [Example 76, 1-(2,4-Difluoro-3-((6-((1-methyl-1H-pyrazol-4-yl)amino)-1H-pyrazolo[3,4-d]pyrimidin-1-yl)methyl)phenyl)piperazin-2-one]: in assay [1], the “JAK3/AurA Fold Selectivity” value is reported as 3-10 Fold and the IC50 is < 0.1 µM. For the same molecule, in assay [2], the “JAK3/AurB Fold Selectivity” value is 3-10 Fold and the IC50 lay in the range of 0.1 to 1 µM.

For the molecule `Cn1cc(Nc2ncc3cnn(Cc4cc(N5CCNCC5)cc(F)c4F)c3n2)cn1` [Example 86, 1-(2,3-Difluoro-5-(piperazin-1-yl)benzyl)-N-(1-methyl-1H-pyrazol-4-yl)-1H-pyrazolo[3,4-d]pyrimidin-6-amine], in assay [1], the “JAK3/AurA Fold Selectivity” value is listed as >50 Fold and the IC50 was 1 to 10 µM. For the same molecule, in assay [2], the “JAK3/AurB Fold Selectivity” value is 10-50 Fold and the IC50 lay within 0.1 to 1 µM.

As to `Cn1cc(Nc2ncc3cnn(Cc4cccc(N5CCOCC5O)c4)c3n2)cn1` (centres unmarked) [Example 88, 4-(3-((6-((1-Methyl-1H-pyrazol-4-yl)amino)-1H-pyrazolo[3,4-d]pyrimidin-1-yl)methyl)phenyl)morpholin-3-ol], in assay [1], the “JAK3/AurA Fold Selectivity” value is 10-50 Fold and the 50% inhibitory concentration (IC50) is 1 to 10 µM. In addition, in assay [2], the “JAK3/AurB Fold Selectivity” value is >50 Fold and the IC50 is 1 to 10 µM.

With `Cn1cc(Nc2ncc3cnn(Cc4cc(N5CCNCC5=O)cc(F)c4F)c3n2)cn1` [Example 71, 1-(3,4-Difluoro-5-((6-((1-methyl-1H-pyrazol-4-yl)amino)-1H-pyrazolo[3,4-d]pyrimidin-1-yl)methyl)phenyl)piperazin-2-one], in assay [1], the “JAK3/AurA Fold Selectivity” value was 10-50 Fold and the IC50 was 0.1 to 1 µM. Also, in assay [2], the “JAK3/AurB Fold Selectivity” value is recorded as 10-50 Fold and the IC50 is 0.1 to 1 µM.

As to `O=C1CNCCN1c1cccc(Cn2ncc3cnc(Nc4cnn(CCO)c4)nc32)c1F` [Example 55, 1-(2-Fluoro-3-((6-((1-(2-hydroxyethyl)-1H-pyrazol-4-yl)amino)-1H-pyrazolo[3,4-d]pyrimidin-1-yl)methyl)phenyl)piperazin-2-one], in assay [1], the “JAK3/AurA Fold Selectivity” value is 10-50 Fold and the IC50 fell in the range of 0.1 to 1 µM. In assay [2], the “JAK3/AurB Fold Selectivity” value was 10-50 Fold and the IC50 was in the range of 0.1 to 1 µM.

For `OCCn1cc(Nc2ncc3cnn(Cc4cccc(N5CCNCC5)c4)c3n2)cn1` [Example 47, 2-(4-((1-(3-(piperazin-1-yl)benzyl)-1H-pyrazolo[3,4-d]pyrimidin-6-yl)amino)-1H-pyrazol-1-yl)ethanol], in assay [1], the “JAK3/AurA Fold Selectivity” value is recorded as 10-50 Fold and the IC50 fell in the range of 0.1 to 1 µM. In addition, in assay [2], the “JAK3/AurB Fold Selectivity” value is 10-50 Fold and the IC50 was in the range of 0.1 to 1 µM.

With `O=C1CNCCN1c1cc(F)c(F)c(Cn2ncc3cnc(Nc4cnn(CCO)c4)nc32)c1` [Example 72, 1-(3,4-Difluoro-5-((6-((1-(2-hydroxyethyl)-1H-pyrazol-4-yl)amino)-1H-pyrazolo[3,4-d]pyrimidin-1-yl)methyl)phenyl)piperazin-2-one], in assay [1], the “JAK3/AurA Fold Selectivity” value was 10-50 Fold and the IC50 is 0.1 to 1 µM. For the same molecule, in assay [2], the “JAK3/AurB Fold Selectivity” value is reported as 10-50 Fold and the IC50 was 0.1 to 1 µM.

`O=C1CNCCN1c1cccc(Cn2ncc3cnc(Nc4cnn(CCO)c4)nc32)c1` [Example 57, 1-(3-((6-((1-(2-Hydroxyethyl)-1H-pyrazol-4-yl)amino)-1H-pyrazolo[3,4-d]pyrimidin-1-yl)methyl)phenyl)piperazin-2-one]: in assay [1], the “JAK3/AurA Fold Selectivity” value is on record as 10-50 Fold and the IC50 was in the range of 0.1 to 1 µM. For the same molecule, in assay [2], the “JAK3/AurB Fold Selectivity” value is 10-50 Fold and the IC50 lay within 0.1 to 1 µM.

Consider `COC1CN(c2cccc(Cn3ncc4cnc(Nc5cnn(C)c5)nc43)c2)C1` [Example 65, 1-(3-(3-Methoxyazetidin-1-yl)benzyl)-N-(1-methyl-1H-pyrazol-4-yl)-1H-pyrazolo[3,4-d]pyrimidin-6-amine], for which, in assay [1], the “JAK3/AurA Fold Selectivity” value is recorded as >50 Fold and the IC50 lay within 1 to 10 µM. In assay [2], the “JAK3/AurB Fold Selectivity” value is recorded as >50 Fold and the IC50 is 1 to 10 µM.

Regarding `CN(C)CCCn1cc(Nc2ncc3cnn(Cc4c(F)ccc(N5CCOCC5=O)c4F)c3n2)cn1` [Example 75, 4-(3-((6-((1-(3-(Dimethylamino)propyl)-1H-pyrazol-4-yl)amino)-1H-pyrazolo[3,4-d]pyrimidin-1-yl)methyl)-2,4-difluorophenyl)morpholin-3-one], in assay [1], the “JAK3/AurA Fold Selectivity” value was 10-50 Fold and the IC50 lay within 0.1 to 1 µM. Also, in assay [2], the “JAK3/AurB Fold Selectivity” value is listed as 3-10 Fold and the IC50 is < 0.1 µM.

The term IC50 denotes the concentration at which inhibition is half-maximal.

Values taken from patent publication US9040545B2, “Heterocyclyl pyrazolopyrimidine analogues as selective JAK inhibitors” (Cellzome Limited, priority 2010, dated 2015).
